From PMC10884005, “Euglena’s atypical respiratory chain adapts to the discoidal cristae and flexible metabolism” (Nature Communications, 2024)

Tests used:
[1] = target: T1, Eg-CI (ubiquinone / rotenone site); test: NADH-DQ oxidoreductase, NADH oxidation at […] nm; type: biochemical, Euglena gracilis; conditions: 10 nM Eg-CI, 200 μM decylubiquinone, 250 μM NADH, pH 7.4, 0.1% digitonin, room temperature
T1 construct: gene ND1; native mitochondrial complex I, LMNG-solubilised, 59 subunits (16 core), ion exchange and SEC; cells catalogue GY-D32; with NADH dehydrogenase [ubiquinone] flavoprotein 1, mitochondrial; NADH-ubiquinone oxidoreductase 75 kDa subunit, N-terminal part; NADH-ubiquinone oxidoreductase 75 kDa subunit, C-terminal part

S. scrofa CI = target: T2, S. scrofa CI (Sus scrofa, UniProt A0A4X1SZP7); test: NADH oxidation at […] nm; type: biochemical; conditions: 200 μM DQ, 300 μM NADH, pH 7.4; thermal deactivation assay
T2 construct: gene NDUFV1; native purified mitochondrial complex I; with NADH dehydrogenase [ubiquinone] flavoprotein 2, mitochondrial; NADH-ubiquinone oxidoreductase 75 kDa subunit, mitochondrial
T2 sequence (A0A4X1SZP7 21-464): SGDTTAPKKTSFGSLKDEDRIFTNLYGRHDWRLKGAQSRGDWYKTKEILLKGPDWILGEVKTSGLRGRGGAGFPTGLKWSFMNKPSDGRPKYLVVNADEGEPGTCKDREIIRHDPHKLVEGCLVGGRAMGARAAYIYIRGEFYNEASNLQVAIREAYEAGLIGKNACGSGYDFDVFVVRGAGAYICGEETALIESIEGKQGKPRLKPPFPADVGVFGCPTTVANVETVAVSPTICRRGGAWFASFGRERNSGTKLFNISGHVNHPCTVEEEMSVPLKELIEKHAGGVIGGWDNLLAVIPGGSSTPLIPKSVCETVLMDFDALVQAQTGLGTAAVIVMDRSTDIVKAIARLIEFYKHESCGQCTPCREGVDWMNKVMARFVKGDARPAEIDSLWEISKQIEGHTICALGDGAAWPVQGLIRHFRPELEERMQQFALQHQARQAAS

Compound	IC50 [1] [µM]	NADH oxidation at 340 nm (S. scrofa CI)
C=C(C)[C@H]1Cc2c(ccc3c2O[C@@H]2COc4cc(OC)c(OC)cc4[C@@H]2C3=O)O1 [rotenone]	~11	
NC(=O)C1=CN([C@@H]2O[C@H](COP(=O)(O)OP(=O)(O)OC[C@H]3O[C@@H](n4cnc5c(N)ncnc54)[C@H](O)[C@@H]3O)[C@@H](O)[C@H]2O)C=CC1 [NADH]		Thermal deactivation assays of S. scrofa CI (a)
